Results reported in patent US11090319B2, “Therapeutic uses of pharmaceutical compositions comprising cyclic boronic acid ester derivatives” (Melinta Subsidiary Corp., priority 2010, dated 2021).
Read-outs that look alike come from different tables or passages of the source.

Columns and labels:
[1] = tested on: strains expressing class A ESBLs; type: cell-based; conditions: tigemonam at 4 μg/mL; for MPC4 TEM-10 EC1009: strain EC1009 TEM-10; for MPC4 CTX-M-14 KP1005: strain KP1005 CTX-M-14; for MPC4 CTX-M-15 KP1009: strain KP1009 CTX-M-15; for MPC4 SHV-12 KP1010: strain KP1010 SHV-12; for MPC4 SHV-18 KP1012: strain KP1012 SHV-18; for MPC4 TEM-10 ec302: strain ec302 TEM-10; for MPC4 TEM-26 ec304: strain ec304 TEM-26; for MPC4 SHV-5 ec308: strain ec308 SHV-5
Protocol: Selected β-lactamase inhibitors were also tested for their ability to potentiate the monobactam tigemonam.

[2] = tested on: strains expressing KPC alone or in combination with additional beta-lactamases; assay: microbe, parasite or virus in culture; type: cell-based

Compound	MPC4 TEM-10 EC1009 [1]	MPC4 CTX-M-14 KP1005 [1]	MPC4 CTX-M-15 KP1009 [1]	MPC4 SHV-12 KP1010 [1]	MPC4 SHV-18 KP1012 [1]	MPC4 TEM-10 ec302 [1]	MPC4 TEM-26 ec304 [1]	MPC4 SHV-5 ec308 [1]	further results
O=C(O)C[C@@H]1CC[C@H](NC(=O)NCc2ccccc2)B(O)O1 [Compound 18]	X (MPC@4 of less than 2 μg/mL)	X (MPC@4 of less than 2 μg/mL)	X (MPC@4 of less than 2 μg/mL)	X (MPC@4 of less than 2 μg/mL)	X (MPC@4 of less than 2 μg/mL)	Y (MPC@4 of 2 μg/mL to 10 μg/mL)	Y (MPC@4 of 2 μg/mL to 10 μg/mL)	Y (MPC@4 of 2 μg/mL to 10 μg/mL)	–
C[C@@H](O)[C@H]1C(=O)N2C(C(=O)O)=C(S[C@@H]3CN[C@H](CNS(N)(=O)=O)C3)[C@H](C)[C@H]12 [Doripenem]	–	–	–	–	–	–	–	–	MIC ([2]; Enterobacter cloacae, Enterobacter cloacae ECL1058, KPC-3, SHV-11, TEM-1, Compound 5 0 mg/L, read-out: MIC of Doripenem): > 4 µg/mL; MIC ([2]; Enterobacter cloacae, Enterobacter cloacae ECL1059, KPC-3, SHV-12, TEM-1, Compound 5 0 mg/L, read-out: MIC of Doripenem): 0.5 to 4 µg/mL; MIC ([2]; Escherichia coli, Escherichia coli EC1007, KPC-3, Compound 5 0 mg/L, read-out: MIC of Doripenem): 0.5 to 4 µg/mL; MIC ([2]; Klebsiella oxytoca, Klebsiella oxytoca KX1017, KPC-2, OXA-2, SHV-30, Compound 5 0 mg/L, read-out: MIC of Doripenem): 0.5 to 4 µg/mL; MIC ([2]; Klebsiella oxytoca, Klebsiella oxytoca KX1018, KPC-2, SHV-40, OXY-1, Compound 5 0 mg/L, read-out: MIC of Doripenem): 0.5 to 4 µg/mL; MIC ([2]; Klebsiella oxytoca, Klebsiella oxytoca KX1019, KPC-2 OXA-2, Compound 5 0 mg/L, read-out: MIC of Doripenem): 0.5 to 4 µg/mL; MIC ([2]; Klebsiella pneumoniae, Klebsiella pneumoniae KP 1004, KPC-2, Compound 5 0 mg/L, read-out: MIC of Doripenem): 0.5 to 4 µg/mL; MIC ([2]; Klebsiella pneumoniae, Klebsiella pneumoniae KP 1008, KPC-2, Compound 5 0 mg/L, read-out: MIC of Doripenem): 0.5 to 4 µg/mL; MIC ([2]; Klebsiella pneumoniae, Klebsiella pneumoniae KP1082, KPC-2 SHV-1, Compound 5 0 mg/L, read-out: MIC of Doripenem): 0.5 to 4 µg/mL; MIC ([2]; Klebsiella pneumoniae, Klebsiella pneumoniae KP1083, KPC-3, SHV-1, TEM-1, Compound 5 0 mg/L, read-out: MIC of Doripenem): > 4 µg/mL; MIC ([2]; Klebsiella pneumoniae, Klebsiella pneumoniae KP1084, KPC-3, SHV-11, TEM-1, Compound 5 0 mg/L, read-out: MIC of Doripenem): > 4 µg/mL; MIC ([2]; Klebsiella pneumoniae, Klebsiella pneumoniae KP 1087, KPC-2, CTX-M-15, SHV-11, TEM-1, Compound 5 0 mg/L, read-out: MIC of Doripenem): > 4 µg/mL; MIC ([2]; Klebsiella pneumoniae, Klebsiella pneumoniae KP1088, KPC-3, SHV-11, TEM-1, Compound 5 0 mg/L, read-out: MIC of Doripenem): 0.5 to 4 µg/mL
C[C@@H](O)[C@H]1C(=O)N2C(C(=O)O)=C(SCCN=CN)C[C@H]12 [Imipenem]	–	–	–	–	–	–	–	–	MIC ([2]; Escherichia coli, read-out: MIC of Imipenem): > 4 µg/mL
O=C(O)CC1C=CC[C@H](NC(=O)Cc2cccs2)B(O)O1 (stereo partly drawn) [Compound 64, 2-((3R)-2-hydroxy-3-(2-(thiophen-2-yl)acetamido)-2,3,4,7-tetrahydro-1,2-oxaborepin-7-yl)acetic acid]	Y (MPC@4 of 2 μg/mL to 10 μg/mL)	Z (MPC@4 of greater than 10 μg/mL)	Y (MPC@4 of 2 μg/mL to 10 μg/mL)	X (MPC@4 of less than 2 μg/mL)	Y (MPC@4 of 2 μg/mL to 10 μg/mL)	Z (MPC@4 of greater than 10 μg/mL)	Z (MPC@4 of greater than 10 μg/mL)	Y (MPC@4 of 2 μg/mL to 10 μg/mL)	–
C[C@@H](O)[C@H]1C(=O)N2C(C(=O)O)=C(S[C@@H]3CN[C@H](C(=O)Nc4cccc(C(=O)O)c4)C3)[C@H](C)[C@H]12 [Ertapenem]	–	–	–	–	–	–	–	–	MIC ([2]; Enterobacter cloacae, Enterobacter cloacae ECL1058, KPC-3, SHV-11, TEM-1, Compound 5 0 mg/L, read-out: MIC of Ertapenem): > 4 µg/mL; MIC ([2]; Enterobacter cloacae, Enterobacter cloacae ECL1059, KPC-3, SHV-12, TEM-1, Compound 5 0 mg/L, read-out: MIC of Ertapenem): 0.5 to 4 µg/mL; MIC ([2]; Escherichia coli, Escherichia coli EC1007, KPC-3, Compound 5 0 mg/L, read-out: MIC of Ertapenem): > 4 µg/mL; MIC ([2]; Klebsiella oxytoca, Klebsiella oxytoca KX1017, KPC-2, OXA-2, SHV-30, Compound 5 0 mg/L, read-out: MIC of Ertapenem): > 4 µg/mL; MIC ([2]; Klebsiella oxytoca, Klebsiella oxytoca KX1018, KPC-2, SHV-40, OXY-1, Compound 5 0 mg/L, read-out: MIC of Ertapenem): > 4 µg/mL; MIC ([2]; Klebsiella oxytoca, Klebsiella oxytoca KX1019, KPC-2 OXA-2, Compound 5 0 mg/L, read-out: MIC of Ertapenem): > 4 µg/mL; MIC ([2]; Klebsiella pneumoniae, Klebsiella pneumoniae KP 1004, KPC-2, Compound 5 0 mg/L, read-out: MIC of Ertapenem): > 4 µg/mL; MIC ([2]; Klebsiella pneumoniae, Klebsiella pneumoniae KP 1008, KPC-2, Compound 5 0 mg/L, read-out: MIC of Ertapenem): > 4 µg/mL; MIC ([2]; Klebsiella pneumoniae, Klebsiella pneumoniae KP1082, KPC-2 SHV-1, Compound 5 0 mg/L, read-out: MIC of Ertapenem): 0.5 to 4 µg/mL; MIC ([2]; Klebsiella pneumoniae, Klebsiella pneumoniae KP1083, KPC-3, SHV-1, TEM-1, Compound 5 0 mg/L, read-out: MIC of Ertapenem): > 4 µg/mL; MIC ([2]; Klebsiella pneumoniae, Klebsiella pneumoniae KP1084, KPC-3, SHV-11, TEM-1, Compound 5 0 mg/L, read-out: MIC of Ertapenem): > 4 µg/mL; MIC ([2]; Klebsiella pneumoniae, Klebsiella pneumoniae KP 1087, KPC-2, CTX-M-15, SHV-11, TEM-1, Compound 5 0 mg/L, read-out: MIC of Ertapenem): > 4 µg/mL; MIC ([2]; Klebsiella pneumoniae, Klebsiella pneumoniae KP1088, KPC-3, SHV-11, TEM-1, Compound 5 0 mg/L, read-out: MIC of Ertapenem): > 4 µg/mL
O=C(O)C[C@@H]1C=CC[C@H](NC(=O)Cc2cccs2)B(O)O1 [Compound 67, 2-((3R,7R)-2-hydroxy-3-(2-(thiophen-2-yl)acetamido)-2,3,4,7-tetrahydro-1,2-oxaborepin-7-yl)acetic acid]	Z (MPC@4 of greater than 10 μg/mL)	Z (MPC@4 of greater than 10 μg/mL)	Y (MPC@4 of 2 μg/mL to 10 μg/mL)	Y (MPC@4 of 2 μg/mL to 10 μg/mL)	Y (MPC@4 of 2 μg/mL to 10 μg/mL)	Z (MPC@4 of greater than 10 μg/mL)	Z (MPC@4 of greater than 10 μg/mL)	Z (MPC@4 of greater than 10 μg/mL)	–
C[C@@H](O)[C@H]1C(=O)N2C(C(=O)O)=C(S[C@@H]3CN[C@H](C(=O)N(C)C)C3)[C@H](C)[C@H]12 [Meropenem]	–	–	–	–	–	–	–	–	MIC ([2]; Enterobacter cloacae, read-out: MIC of Meropenem, Enterobacter cloacae ECL1058, KPC-3, SHV-11, TEM-1, Compound 5 0 mg/L): > 4 µg/mL; MIC ([2]; Enterobacter cloacae, read-out: MIC of Meropenem, Enterobacter cloacae ECL1059, KPC-3, SHV-12, TEM-1, Compound 5 0 mg/L): 0.5 to 4 µg/mL; MIC ([2]; Escherichia coli, read-out: MIC of Meropenem, Escherichia coli EC1007, KPC-3, Compound 5 0 mg/L): 0.5 to 4 µg/mL; MIC ([2]; Klebsiella oxytoca, read-out: MIC of Meropenem, Klebsiella oxytoca KX1017, KPC-2, OXA-2, SHV-30, Compound 5 0 mg/L): 0.5 to 4 µg/mL; MIC ([2]; Klebsiella oxytoca, read-out: MIC of Meropenem, Klebsiella oxytoca KX1018, KPC-2, SHV-40, OXY-1, Compound 5 0 mg/L): 0.5 to 4 µg/mL; MIC ([2]; Klebsiella oxytoca, read-out: MIC of Meropenem, Klebsiella oxytoca KX1019, KPC-2 OXA-2, Compound 5 0 mg/L): 0.5 to 4 µg/mL; MIC ([2]; Klebsiella pneumoniae, read-out: MIC of Meropenem, Klebsiella pneumoniae KP 1004, KP C-2, Compound 5 0 mg/L): > 4 µg/mL; MIC ([2]; Klebsiella pneumoniae, read-out: MIC of Meropenem, Klebsiella pneumoniae KP 1008, KPC-2, Compound 5 0 mg/L): 0.5 to 4 µg/mL; MIC ([2]; Klebsiella pneumoniae, read-out: MIC of Meropenem, Klebsiella pneumoniae KP1082, KPC-2 SHV-1, Compound 5 0 mg/L): 0.5 to 4 µg/mL; MIC ([2]; Klebsiella pneumoniae, read-out: MIC of Meropenem, Klebsiella pneumoniae KP1083, KPC-3, SHV-1, TEM-1, Compound 5 0 mg/L): > 4 µg/mL; MIC ([2]; Klebsiella pneumoniae, read-out: MIC of Meropenem, Klebsiella pneumoniae KP1084, KPC-3, SHV-11, TEM-1, Compound 5 0 mg/L): > 4 µg/mL; MIC ([2]; Klebsiella pneumoniae, read-out: MIC of Meropenem, Klebsiella pneumoniae KP 1087, KPC-2, CTX-M-15, SHV-11, TEM-1, Compound 5 0 mg/L): > 4 µg/mL; MIC ([2]; Klebsiella pneumoniae, read-out: MIC of Meropenem, Klebsiella pneumoniae KP1088, KPC-3, SHV-11, TEM-1, Compound 5 0 mg/L): > 4 µg/mL
O=C(O)C[C@H]1C=CC[C@H](NC(=O)Cc2cccs2)B(O)O1 [Compound 68, 2-((3R,7S)-2-hydroxy-3-(2-(thiophen-2-yl)acetamido)-2,3,4,7-tetrahydro-1,2-oxaborepin-7-yl)acetic acid]	Y (MPC@4 of 2 μg/mL to 10 μg/mL)	Y (MPC@4 of 2 μg/mL to 10 μg/mL)	Y (MPC@4 of 2 μg/mL to 10 μg/mL)	X (MPC@4 of less than 2 μg/mL)	X (MPC@4 of less than 2 μg/mL)	Y (MPC@4 of 2 μg/mL to 10 μg/mL)	Y (MPC@4 of 2 μg/mL to 10 μg/mL)	Y (MPC@4 of 2 μg/mL to 10 μg/mL)	–
N[C@@H](C(=O)N[C@H]1CC[C@@H](CC(=O)O)OB1O)c1ccccc1 [Compound 9]	Z (MPC@4 of greater than 10 μg/mL)	Z (MPC@4 of greater than 10 μg/mL)	Z (MPC@4 of greater than 10 μg/mL)	Z (MPC@4 of greater than 10 μg/mL)	Z (MPC@4 of greater than 10 μg/mL)	Z (MPC@4 of greater than 10 μg/mL)	Z (MPC@4 of greater than 10 μg/mL)	Z (MPC@4 of greater than 10 μg/mL)	–
